According to the supplement of paper PMC13386468:
pIC50: −log10 of the molar value.

What was measured:
Assay in all cases: IC50 for competition of protein binding to Kinobeads
Details in all cases: assay detail: Kinobeads competition in P. falciparum blood-stage lysate
UniProt O77345 = target: UniProt O77345
UniProt Q8IIW2 = target: UniProt Q8IIW2
UniProt Q8IEE9 = target: UniProt Q8IEE9
UniProt C0H571 = target: UniProt C0H571
UniProt C0H5L6 = target: UniProt C0H5L6
UniProt Q8I5R7 = target: UniProt Q8I5R7
UniProt Q8I206 = target: UniProt Q8I206
UniProt Q8I2W4 = target: UniProt Q8I2W4
UniProt Q8III3 = target: UniProt Q8III3
UniProt Q8I527 = target: UniProt Q8I527
UniProt Q8IIA4 = target: UniProt Q8IIA4
UniProt Q8I5C6 = target: UniProt Q8I5C6
UniProt Q8I0U8 = target: UniProt Q8I0U8
Chain of UniProt Q8I0U8 (Q8I0U8 whole entry): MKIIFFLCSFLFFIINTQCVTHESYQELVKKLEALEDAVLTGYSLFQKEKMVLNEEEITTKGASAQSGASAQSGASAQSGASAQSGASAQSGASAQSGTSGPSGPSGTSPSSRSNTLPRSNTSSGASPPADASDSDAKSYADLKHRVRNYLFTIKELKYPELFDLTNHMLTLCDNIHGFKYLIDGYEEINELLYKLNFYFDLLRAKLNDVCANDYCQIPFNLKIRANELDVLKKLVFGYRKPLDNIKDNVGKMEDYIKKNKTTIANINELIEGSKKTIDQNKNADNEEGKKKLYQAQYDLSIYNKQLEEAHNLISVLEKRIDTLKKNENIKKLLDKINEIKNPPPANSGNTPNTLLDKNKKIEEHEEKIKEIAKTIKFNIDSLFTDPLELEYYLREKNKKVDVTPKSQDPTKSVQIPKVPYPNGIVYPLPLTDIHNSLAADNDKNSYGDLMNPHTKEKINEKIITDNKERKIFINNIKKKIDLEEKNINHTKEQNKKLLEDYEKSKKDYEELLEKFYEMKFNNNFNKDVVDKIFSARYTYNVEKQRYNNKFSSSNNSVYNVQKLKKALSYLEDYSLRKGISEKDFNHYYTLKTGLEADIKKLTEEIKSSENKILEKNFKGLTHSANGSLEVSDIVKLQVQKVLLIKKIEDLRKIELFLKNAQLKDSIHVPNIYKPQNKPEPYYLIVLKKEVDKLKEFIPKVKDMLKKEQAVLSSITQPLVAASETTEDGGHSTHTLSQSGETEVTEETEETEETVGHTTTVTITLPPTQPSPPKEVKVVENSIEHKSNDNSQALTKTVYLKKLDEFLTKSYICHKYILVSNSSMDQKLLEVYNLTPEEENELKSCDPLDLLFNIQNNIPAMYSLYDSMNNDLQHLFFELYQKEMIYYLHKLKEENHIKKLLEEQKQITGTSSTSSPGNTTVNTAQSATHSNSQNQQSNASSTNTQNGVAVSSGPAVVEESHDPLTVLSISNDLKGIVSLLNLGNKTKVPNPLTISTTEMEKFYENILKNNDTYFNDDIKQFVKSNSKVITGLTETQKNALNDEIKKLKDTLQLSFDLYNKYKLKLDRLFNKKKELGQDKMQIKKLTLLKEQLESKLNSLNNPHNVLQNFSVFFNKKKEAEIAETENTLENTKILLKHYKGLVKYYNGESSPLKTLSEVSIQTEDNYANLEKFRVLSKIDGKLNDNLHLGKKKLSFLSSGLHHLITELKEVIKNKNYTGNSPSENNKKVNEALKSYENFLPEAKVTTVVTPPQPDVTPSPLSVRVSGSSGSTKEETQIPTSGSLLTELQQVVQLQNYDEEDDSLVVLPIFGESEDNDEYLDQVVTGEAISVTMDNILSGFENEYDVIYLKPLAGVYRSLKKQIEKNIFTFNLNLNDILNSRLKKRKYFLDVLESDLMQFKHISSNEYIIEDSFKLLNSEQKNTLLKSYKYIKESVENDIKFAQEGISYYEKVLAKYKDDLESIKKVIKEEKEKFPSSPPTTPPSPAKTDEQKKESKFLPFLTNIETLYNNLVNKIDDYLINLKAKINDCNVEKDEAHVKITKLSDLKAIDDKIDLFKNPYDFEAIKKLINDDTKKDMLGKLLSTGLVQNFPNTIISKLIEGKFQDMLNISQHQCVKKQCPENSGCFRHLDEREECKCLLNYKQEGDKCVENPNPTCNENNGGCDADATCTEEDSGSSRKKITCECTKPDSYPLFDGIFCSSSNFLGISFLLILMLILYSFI

UniProt Q8IAK9 = target: UniProt Q8IAK9
UniProt Q8IJA0 = target: UniProt Q8IJA0
UniProt Q8IKU1 = target: UniProt Q8IKU1
UniProt Q8IDM3 = target: UniProt Q8IDM3
UniProt Q8I488 = target: UniProt Q8I488
UniProt Q7K6B1 = target: UniProt Q7K6B1
UniProt Q8I5S6 = target: UniProt Q8I5S6
UniProt Q8IE43 = target: UniProt Q8IE43
UniProt Q8IIH4 = target: UniProt Q8IIH4
UniProt C6KSZ6 = target: UniProt C6KSZ6
UniProt Q8I6U4 = target: UniProt Q8I6U4
Chain of UniProt Q8I6U4 (Q8I6U4 whole entry): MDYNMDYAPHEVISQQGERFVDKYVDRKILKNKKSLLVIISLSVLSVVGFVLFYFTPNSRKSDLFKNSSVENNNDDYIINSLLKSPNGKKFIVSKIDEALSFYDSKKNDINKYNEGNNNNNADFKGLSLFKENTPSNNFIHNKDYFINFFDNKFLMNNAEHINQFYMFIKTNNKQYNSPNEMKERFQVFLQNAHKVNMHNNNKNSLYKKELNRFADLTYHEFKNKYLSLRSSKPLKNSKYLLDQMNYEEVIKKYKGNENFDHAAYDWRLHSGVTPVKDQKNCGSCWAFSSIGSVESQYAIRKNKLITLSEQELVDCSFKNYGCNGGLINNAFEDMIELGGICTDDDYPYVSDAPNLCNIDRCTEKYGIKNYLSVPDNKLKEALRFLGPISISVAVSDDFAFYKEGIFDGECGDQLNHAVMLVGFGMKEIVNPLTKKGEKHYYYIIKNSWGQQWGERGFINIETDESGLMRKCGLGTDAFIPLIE

UniProt Q8IBY4 = target: UniProt Q8IBY4
UniProt Q8ILN8 = target: UniProt Q8ILN8
UniProt Q8II92 = target: UniProt Q8II92
UniProt Q8I1S0 = target: UniProt Q8I1S0
UniProt Q8IJR9 = target: UniProt Q8IJR9
Chain of UniProt Q8IJR9 (Q8IJR9 whole entry): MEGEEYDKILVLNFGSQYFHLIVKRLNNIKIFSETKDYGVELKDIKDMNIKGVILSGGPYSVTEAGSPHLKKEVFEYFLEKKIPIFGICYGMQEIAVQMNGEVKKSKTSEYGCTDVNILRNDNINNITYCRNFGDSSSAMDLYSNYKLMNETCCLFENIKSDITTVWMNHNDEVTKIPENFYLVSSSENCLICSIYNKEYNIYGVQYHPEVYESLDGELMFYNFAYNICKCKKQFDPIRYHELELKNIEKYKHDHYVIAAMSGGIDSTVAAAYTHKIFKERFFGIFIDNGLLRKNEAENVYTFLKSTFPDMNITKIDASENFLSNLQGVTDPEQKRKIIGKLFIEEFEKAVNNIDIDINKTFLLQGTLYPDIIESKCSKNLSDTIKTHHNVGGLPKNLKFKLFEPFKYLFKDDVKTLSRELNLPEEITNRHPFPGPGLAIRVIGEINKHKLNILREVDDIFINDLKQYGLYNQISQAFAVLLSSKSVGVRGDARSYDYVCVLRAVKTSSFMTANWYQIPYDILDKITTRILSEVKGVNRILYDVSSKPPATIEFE

A0A143ZZT8 = target: A0A143ZZT8
UniProt Q8IKL1 = target: UniProt Q8IKL1
UniProt Q8I3Y8 = target: UniProt Q8I3Y8
Chain of UniProt Q8I3Y8 (Q8I3Y8 whole entry): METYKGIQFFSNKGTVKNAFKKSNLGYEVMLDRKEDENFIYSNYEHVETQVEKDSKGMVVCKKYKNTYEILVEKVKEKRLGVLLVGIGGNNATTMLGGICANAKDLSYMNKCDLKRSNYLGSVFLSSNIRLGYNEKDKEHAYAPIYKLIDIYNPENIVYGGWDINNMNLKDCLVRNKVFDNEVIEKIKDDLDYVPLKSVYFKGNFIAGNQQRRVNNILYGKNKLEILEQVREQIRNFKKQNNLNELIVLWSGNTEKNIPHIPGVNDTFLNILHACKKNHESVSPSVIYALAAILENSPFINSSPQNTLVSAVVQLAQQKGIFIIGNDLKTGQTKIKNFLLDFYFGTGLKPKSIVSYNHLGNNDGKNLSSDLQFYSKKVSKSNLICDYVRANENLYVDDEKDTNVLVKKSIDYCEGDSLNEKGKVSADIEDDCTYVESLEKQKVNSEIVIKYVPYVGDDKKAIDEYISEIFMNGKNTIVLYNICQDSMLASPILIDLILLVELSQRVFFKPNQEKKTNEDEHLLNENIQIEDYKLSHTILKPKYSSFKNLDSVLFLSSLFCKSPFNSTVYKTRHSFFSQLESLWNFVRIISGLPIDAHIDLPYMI

UniProt Q8IJA4 = target: UniProt Q8IJA4
UniProt Q8I2X0 = target: UniProt Q8I2X0
UniProt Q8IM10 = target: UniProt Q8IM10
UniProt C0H551 = target: UniProt C0H551
UniProt Q8IJA9 = target: UniProt Q8IJA9
UniProt C0H4R8 = target: UniProt C0H4R8
UniProt Q8I2I8 = target: UniProt Q8I2I8
UniProt Q8I562 = target: UniProt Q8I562
UniProt Q8I323 = target: UniProt Q8I323
UniProt Q8I3T4 = target: UniProt Q8I3T4
UniProt C6KT25 = target: UniProt C6KT25
UniProt Q8I4Y5 = target: UniProt Q8I4Y5
UniProt Q8I1V0 = target: UniProt Q8I1V0
UniProt O96260 = target: UniProt O96260
UniProt Q8ILI6 = target: UniProt Q8ILI6
Chain of UniProt Q8ILI6 (Q8ILI6 whole entry): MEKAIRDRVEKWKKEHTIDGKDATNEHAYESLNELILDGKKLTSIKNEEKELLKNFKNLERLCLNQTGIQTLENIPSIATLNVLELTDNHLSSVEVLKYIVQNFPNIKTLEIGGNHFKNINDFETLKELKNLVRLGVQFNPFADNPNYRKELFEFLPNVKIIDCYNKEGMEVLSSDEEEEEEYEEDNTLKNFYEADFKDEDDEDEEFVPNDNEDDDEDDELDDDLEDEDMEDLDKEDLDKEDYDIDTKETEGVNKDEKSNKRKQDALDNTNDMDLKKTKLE

UniProt C0H4Y6 = target: UniProt C0H4Y6
UniProt Q8IE84 = target: UniProt Q8IE84
UniProt C6KTC7 = target: UniProt C6KTC7
UniProt Q8IJT9 = target: UniProt Q8IJT9
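Further: native unpurified kinases from lysate captured on beads bearing immobilized kinase inhibitors, with bead-bound kinases quantified by mass spectrometry across compound doses.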

Chain of UniProt C0H571 (C0H571 whole entry): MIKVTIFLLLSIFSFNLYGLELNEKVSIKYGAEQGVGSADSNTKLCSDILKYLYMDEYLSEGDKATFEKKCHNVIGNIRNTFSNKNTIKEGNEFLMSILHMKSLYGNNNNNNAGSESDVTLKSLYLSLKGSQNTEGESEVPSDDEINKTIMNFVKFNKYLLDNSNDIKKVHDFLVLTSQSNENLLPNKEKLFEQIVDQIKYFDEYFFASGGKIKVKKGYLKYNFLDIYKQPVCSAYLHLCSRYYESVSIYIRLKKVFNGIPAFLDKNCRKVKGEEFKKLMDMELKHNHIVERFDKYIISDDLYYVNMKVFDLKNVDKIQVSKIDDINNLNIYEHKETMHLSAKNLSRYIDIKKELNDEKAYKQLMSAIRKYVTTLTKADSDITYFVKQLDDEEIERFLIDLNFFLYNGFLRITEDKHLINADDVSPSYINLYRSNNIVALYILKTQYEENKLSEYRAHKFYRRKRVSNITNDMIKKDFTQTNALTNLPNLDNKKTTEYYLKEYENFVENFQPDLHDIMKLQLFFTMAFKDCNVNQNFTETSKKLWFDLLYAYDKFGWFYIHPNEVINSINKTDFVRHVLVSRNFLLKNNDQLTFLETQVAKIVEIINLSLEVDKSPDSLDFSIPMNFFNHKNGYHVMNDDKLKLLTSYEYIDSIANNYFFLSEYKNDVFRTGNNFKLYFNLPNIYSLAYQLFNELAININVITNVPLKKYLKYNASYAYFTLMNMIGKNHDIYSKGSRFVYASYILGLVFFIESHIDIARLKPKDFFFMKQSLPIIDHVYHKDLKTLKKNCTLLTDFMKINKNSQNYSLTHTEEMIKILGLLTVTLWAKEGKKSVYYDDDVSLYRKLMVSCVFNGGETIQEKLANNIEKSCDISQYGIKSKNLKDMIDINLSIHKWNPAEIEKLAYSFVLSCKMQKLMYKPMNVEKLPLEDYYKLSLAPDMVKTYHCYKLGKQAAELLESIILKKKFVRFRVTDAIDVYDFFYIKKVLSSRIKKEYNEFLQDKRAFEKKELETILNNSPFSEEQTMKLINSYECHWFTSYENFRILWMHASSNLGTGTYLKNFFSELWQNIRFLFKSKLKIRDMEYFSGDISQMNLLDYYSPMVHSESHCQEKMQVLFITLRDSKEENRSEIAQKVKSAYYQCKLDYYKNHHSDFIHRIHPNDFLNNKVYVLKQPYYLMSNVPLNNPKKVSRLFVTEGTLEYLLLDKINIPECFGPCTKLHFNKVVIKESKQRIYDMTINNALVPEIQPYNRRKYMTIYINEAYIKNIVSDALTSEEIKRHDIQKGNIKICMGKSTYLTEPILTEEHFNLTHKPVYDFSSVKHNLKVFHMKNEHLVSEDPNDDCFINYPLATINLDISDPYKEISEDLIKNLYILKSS

`O=c1[nH]c2ccc(Cl)cc2c(NC2CN3CCC2CC3)c1-c1nc2ccccc2[nH]1` (stereo unspecified) [CHIR-124] showed a pIC50 (UniProt O77345) of less than 4.70, a pIC50 (UniProt Q8IIW2) of less than 4.70 and a pIC50 (UniProt Q8IEE9) of less than 4.70. For the same compound, the pIC50 (UniProt C0H571) was less than 4.70, the pIC50 (UniProt C0H5L6) was less than 4.70 and the pIC50 (UniProt Q8I5R7) was less than 4.70. It also gave a pIC50 (UniProt Q8I206) of less than 4.70, a pIC50 (UniProt Q8I2W4) of less than 4.70 and a pIC50 (UniProt Q8III3) of less than 4.70. The pIC50 (UniProt Q8I527) was less than 4.70, the pIC50 (UniProt Q8IIA4) was less than 4.70 and the pIC50 (UniProt Q8I5C6) was less than 4.70. The pIC50 (UniProt Q8I0U8) was less than 4.70, the pIC50 (UniProt Q8IAK9) was less than 4.70 and the pIC50 (UniProt Q8IJA0) was less than 4.70. It also gave a pIC50 (UniProt Q8IKU1) of less than 4.70, a pIC50 (UniProt Q8IDM3) of less than 4.70 and a pIC50 (UniProt Q8I488) of less than 4.70. The pIC50 (UniProt Q7K6B1) was less than 4.70, the pIC50 (UniProt Q8I5S6) was less than 4.70 and the pIC50 (UniProt Q8IE43) was less than 4.70. It also gave a pIC50 (UniProt Q8IIH4) of less than 4.70, a pIC50 (UniProt C6KSZ6) of 5.65 and a pIC50 (UniProt Q8I6U4) of less than 4.70. The pIC50 (UniProt Q8IBY4) was less than 4.70, the pIC50 (UniProt Q8ILN8) was less than 4.70 and the pIC50 (UniProt Q8II92) was less than 4.70. The pIC50 (UniProt Q8I1S0) was less than 4.70, the pIC50 (UniProt Q8IJR9) was less than 4.70 and the pIC50 (A0A143ZZT8) was less than 4.70. For the same compound, the pIC50 (UniProt Q8IKL1) was less than 4.70, the pIC50 (UniProt Q8I3Y8) was less than 4.70 and the pIC50 (UniProt Q8IJA4) was less than 4.70. It also gave a pIC50 (UniProt Q8I2X0) of less than 4.70, a pIC50 (UniProt Q8IM10) of less than 4.70 and a pIC50 (UniProt C0H551) of less than 4.70. For the same compound, the pIC50 (UniProt Q8IJA9) was less than 4.70, the pIC50 (UniProt C0H4R8) was 5.27 and the pIC50 (UniProt Q8I2I8) was less than 4.70. For the same compound, the pIC50 (UniProt Q8I562) was less than 4.70, the pIC50 (UniProt Q8I323) was less than 4.70 and the pIC50 (UniProt Q8I3T4) was less than 4.70. The pIC50 (UniProt C6KT25) was less than 4.70, the pIC50 (UniProt Q8I4Y5) was less than 4.70 and the pIC50 (UniProt Q8I1V0) was less than 4.70. For the same compound, the pIC50 (UniProt O96260) was less than 4.70, the pIC50 (UniProt Q8ILI6) was less than 4.70 and the pIC50 (UniProt C0H4Y6) was less than 4.70. For the same compound, the pIC50 (UniProt Q8IE84) was less than 4.70, the pIC50 (UniProt C6KTC7) was less than 4.70 and the pIC50 (UniProt Q8IJT9) was less than 4.70.
